Measurements reported in the METLIN SMRT retention time set (Domingo-Almenara et al. 2019).

Assay: gradient 5% acetonitrile 3 min, to 50% in 2 min, to 85% in 15 min, held 3 min, 100 µL/min
Conditions: column: Zorbax Extend-C18 2.1 x 50 mm; eluents: water / acetonitrile, 0.1% formic acid
Outline: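 Pure standards were run in mixtures of ~100 molecules by HPLC coupled to a quadrupole time-of-flight mass spectrometer. The column was a Zorbax Extend-C18 (2.1 × 50 mm, 1.8 μm) at 100 μL/min, with water and acetonitrile each containing 0.1% formic acid, in positive and negative ionization mode. Dead and dwell volumes were 40 μL and 900 μL. Retention time was taken from computationally picked adduct peaks, each manually inspected, with data collected over 3 months.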

Compound	RP-LC retention time [s]
Cc1ccccc1Nc1c(-c2cccc(O)c2)nc2ccc(Br)cn12	727
COc1ccc(-c2ccnc3nc(CC(C)C)nn23)c(F)c1	904
COCCNc1c(-c2cccc(F)c2)nc2sc(C(=O)N(C)C)c(C)n12	742
Cc1cc(OCC(=O)Nc2cccc(C)c2C)nc(N2CCN(c3ccccc3)CC2)n1	885
O=C(c1cccc(Br)c1)N1CCN(C(=O)N2CCOCC2)CC1	631
Fc1ccccc1-c1nc(-c2cn(-c3ccccc3)nn2)no1	1230
Cc1ccc(-c2nc3cnc(Br)cn3c2Nc2ccc3c(c2)OCCO3)cc1	956
Cc1ccc(Nc2nc(-c3cc(C)ccc3C)cs2)nc1	902
Cc1cccc(OCC(=O)N2CCCC(c3n[nH]c(C4CC4)n3)C2)c1 (stereo not drawn)	687
CCn1ncc(N2CCCC(CC(=O)O)C2)cc1=O (stereo not drawn)	632
O=c1c2ccccc2ncn1-c1ccc(Cl)cc1	870
CCN1CCN(CCNC(=O)Cn2c(=O)c3cccn3c3ccc(F)cc32)CC1	589
CC(C)c1ccc(NC(=O)C(=O)NCC2(CO)CC2)cc1	797
CCOc1ccc(C(=O)N2CCC3(CC2)NC(=O)c2cc(C)ccc2N3CC)cc1	878
COc1ccc(NS(=O)(=O)c2cc3c(s2)CCN(C(=O)C2CC2)C3)cc1	774
COc1cc(C(=O)Nc2nc(-c3ccc(F)cc3)cs2)cc(OC)c1OC	1040
COc1ccc(C2C(C(=O)c3cccs3)=C(O)C(=O)N2CCCN2CCOCC2)cc1OC (stereo not drawn)	613
O=C(NCCc1ccccc1)C1=Cc2ccccc2OC=C1	1010
Cc1cc2nn(CC(=O)N3CCC(C)CC3)c(=O)n2c(Nc2ccc(C)c(C)c2)n1	941
O=C([C@@H]1C[C@H](Oc2ccccc2)CN1C(=O)CCc1nc2ccccc2s1)N1CCCC1	815
CCN(CC)C(=O)c1c2c(cn(-c3ccc(F)cc3)c1=O)C(=O)CC(C)(C)C2	759
CSc1ccc(-c2noc(Cc3nnc(-c4ccc(Cl)cc4)o3)n2)cc1	1120

Compound	RP-LC retention time [s]
CC(C(=O)N1CCN(c2ccccn2)CC1)n1c(=O)c(C(F)(F)F)nc2ccccc21 (stereo not drawn)	696
O=C(Nc1ccccc1)c1cnn2c1CCCC2	699
OC1(c2ccccn2)CCOC2(CCN(Cc3cccc(Cl)c3)CC2)C1 (stereo not drawn)	584
Cc1ccc(C)c(S(=O)(=O)N2CCC3(CC2)NCCN=C3NCc2ccccc2F)c1	757
O=C(Cc1ccccc1Cl)NCCn1cnc(-c2ccccc2)cc1=O	715
CCOc1ccc(-n2nnnc2CNS(=O)(=O)c2ccc(CC)s2)cc1	949
COc1ccccc1N1CCN(c2cc(SCC(=O)NCc3ccco3)ncn2)CC1	777
CC(C)(C)C(=O)Nc1cnc(-c2ccc(Cl)cc2)nc1	1060
Cc1ccccc1-c1nc(-c2ccc(-n3ccnc3)nc2)no1	814
COc1ccc(-c2c(NC(=O)c3cccs3)n(C)c3ccccc3c2=O)cc1	668
O=C(Nc1ccc2c(c1)OCO2)c1nnc(C2CCCN2C(=O)NCc2ccc(F)cc2)s1 (stereo not drawn)	854
COC1CCC12CCN(C(=O)c1cccs1)CC2 (stereo not drawn)	748
CCc1ccc(NC(=O)Cn2nc3c(N4CCSCC4)nccn3c2=O)cc1	888
COc1cc(OC)cc(C(=O)Nc2ccc(N3CCN(C4CCCC4)C3=O)nc2)c1	829
CC(C)CNC(=O)C1CC(=O)N(c2ccc3c(c2)CCN3C(=O)C2CC2)C1 (stereo not drawn)	698
Cc1ccsc1CN1CCn2c(nnc2[C@@H]2C[C@@H](O)CN2Cc2cccnc2)C1	591
Cc1ccc(C2CCCN2C(=O)c2nc3nc(C)cc(C(F)F)n3n2)cc1 (stereo not drawn)	835
O=C(c1ccc([N+](=O)[O-])o1)N1CCN(C(=O)C2CC2c2cccs2)CC1 (stereo not drawn)	752
COc1ccc(NC(=O)N2CCCC(Cn3cnc4cccnc43)C2)cc1 (stereo not drawn)	610
COc1cccc(-c2noc(Cn3c(=O)n(Cc4ccccc4)c(=O)c4sccc43)n2)c1	911
CC(C)n1cnnc1CC1CCN(C(=O)C2CCN(S(=O)(=O)N3CCOCC3)CC2)CC1	614

The next lines start with the values.

RP-LC retention time [s]	Compound
602	CNc1nc(N(C)C)nc(N(C)C)n1
581	Cn1c(=O)c(N2CCCC(C(=O)NCCCN3CCCCCC3)C2)nc2cccnc21 (stereo not drawn)
700	Cn1cc(CCNC(=O)Cc2ccccc2Cl)c2cccnc21
1040	COc1ccccc1NC(=O)N1CCOc2ccc(C)cc21
798	O=C(Nc1ccc(C(F)(F)F)cc1)N1CCCC(Cn2c(C3CC3)nc3cccnc32)C1 (stereo not drawn)
982	Cc1nc2nc(-c3ccc(C(C)(C)C)cc3)nn2c(C)c1CC(=O)N(CCO)Cc1ccccc1
596	CNC(=O)C1CN(S(=O)(=O)c2ccc(C)cc2)CC12CCCC2 (stereo not drawn)
1350	Cc1ccc(NC(=O)C2CCCN(c3nc4ccccc4nc3C(F)(F)F)C2)c(Cl)c1 (stereo not drawn)
915	COc1ccc(CN2C(=O)CN(C3CCCCC3)C(=O)C2c2cccs2)cc1 (stereo not drawn)
674	COc1ccc(-c2c(NC(=O)c3ccco3)n(-c3ccccc3)nc(C)c2=O)cc1
675	Cc1ccc(NC(=O)Nc2ccc(CC(N)=O)cc2)cc1C
794	Cc1ccc(NC(=O)N2CCCC2c2nncn2-c2ccccc2)c(Cl)c1 (stereo not drawn)
1300	O=[N+]([O-])c1ccc(NN=C(c2ccccc2)c2ccccc2)nc1
633	CCN(CC)CCNC(=O)c1cc2cc(S(=O)(=O)N(C)C)ccc2n1CC
740	COc1ccc(CC(=O)Nc2cnn(-c3ncc(N(C)C)cn3)c2)cc1Cl
722	Cc1cccc(C)c1NC(=O)N1CCCC1c1nncn1C1CCCC1 (stereo not drawn)
984	CCOC(=O)c1c(S(=O)(=O)N2CCC(C(=O)Nc3cccc(CC)c3)CC2)c(C)n(CC)c1C
576	CC(=O)N1CCN(c2nc3c(s2)CC(C(=O)NCc2cc(C)ccc2C)CC3)CC1 (stereo not drawn)
799	CC(C)NC(=O)N1CCCC1c1noc(COc2ccc(F)cc2)n1 (stereo not drawn)
711	CCc1cc(=O)n(CC(=O)Nc2ccccc2F)c(N2CCOCC2)n1
725	Cn1cc(CC(=O)NCc2ccc(F)c(Cl)c2)c2cccnc21
666	CC(C)C(NC(=O)c1ccsc1)C(=O)Nc1nc2ccccc2[nH]1 (stereo not drawn)
917	Cc1nc(-c2noc(-c3ccccc3)n2)cn1CC(=O)Nc1ccc(F)c(Cl)c1
997	CC(=O)c1cccc(NC(=O)c2csc3c2CCC(C)C3)c1 (stereo not drawn)
792	COC(=O)c1c(NCC(C)C)c2cccc(Cl)c2[nH]c1=O
